From ChEMBL document CHEMBL4265889, “Design and synthesis of tetrahydropyridopyrimidine based Toll-Like Receptor (TLR) 7/8 dual agonists” (Bioorg Med Chem Lett, 2018)

Columns and labels:
[1] = biological target: T1, Toll-like receptor 8 (Homo sapiens) (UniProt Q9NR97); test: Agonist activity at human TLR8 expressed in HEK293 cells after 6 hrs by NFkappaB-luciferase reporter gene assay; format: cell-based
T1 sequence (whole entry): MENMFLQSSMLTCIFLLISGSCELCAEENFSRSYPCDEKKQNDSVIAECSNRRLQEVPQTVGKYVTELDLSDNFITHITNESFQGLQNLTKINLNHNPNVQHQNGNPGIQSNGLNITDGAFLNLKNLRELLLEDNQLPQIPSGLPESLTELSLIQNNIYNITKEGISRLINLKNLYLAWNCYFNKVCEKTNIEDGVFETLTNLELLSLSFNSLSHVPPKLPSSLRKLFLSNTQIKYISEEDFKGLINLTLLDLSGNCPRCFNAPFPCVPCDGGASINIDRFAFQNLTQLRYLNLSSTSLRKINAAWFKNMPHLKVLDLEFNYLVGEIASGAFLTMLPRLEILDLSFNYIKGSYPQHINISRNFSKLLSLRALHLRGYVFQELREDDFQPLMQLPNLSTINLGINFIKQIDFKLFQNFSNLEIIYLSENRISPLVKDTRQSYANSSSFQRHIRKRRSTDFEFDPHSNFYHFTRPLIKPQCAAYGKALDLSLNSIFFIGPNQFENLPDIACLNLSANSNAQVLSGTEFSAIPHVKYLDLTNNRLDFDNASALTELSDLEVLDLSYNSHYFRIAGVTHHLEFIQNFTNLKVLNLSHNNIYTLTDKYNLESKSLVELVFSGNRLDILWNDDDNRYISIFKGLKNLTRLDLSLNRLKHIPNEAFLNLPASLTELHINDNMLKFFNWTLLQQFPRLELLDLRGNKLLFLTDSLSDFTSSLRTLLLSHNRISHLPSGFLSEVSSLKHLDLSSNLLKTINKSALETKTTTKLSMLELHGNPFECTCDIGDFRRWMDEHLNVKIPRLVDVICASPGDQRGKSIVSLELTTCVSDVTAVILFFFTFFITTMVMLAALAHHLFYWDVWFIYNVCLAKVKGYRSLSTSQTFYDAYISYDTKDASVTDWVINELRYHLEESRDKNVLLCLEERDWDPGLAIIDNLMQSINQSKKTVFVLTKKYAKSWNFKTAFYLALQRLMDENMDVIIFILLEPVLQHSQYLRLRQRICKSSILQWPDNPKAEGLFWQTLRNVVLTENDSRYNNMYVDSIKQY

[2] = biological target: T2, Toll-like receptor 7 (Homo sapiens) (UniProt Q9NYK1); test: Agonist activity at human TLR7 expressed in HEK293 cells after 6 hrs by NFkappaB-luciferase reporter gene assay; format: cell-based
T2 sequence (whole entry): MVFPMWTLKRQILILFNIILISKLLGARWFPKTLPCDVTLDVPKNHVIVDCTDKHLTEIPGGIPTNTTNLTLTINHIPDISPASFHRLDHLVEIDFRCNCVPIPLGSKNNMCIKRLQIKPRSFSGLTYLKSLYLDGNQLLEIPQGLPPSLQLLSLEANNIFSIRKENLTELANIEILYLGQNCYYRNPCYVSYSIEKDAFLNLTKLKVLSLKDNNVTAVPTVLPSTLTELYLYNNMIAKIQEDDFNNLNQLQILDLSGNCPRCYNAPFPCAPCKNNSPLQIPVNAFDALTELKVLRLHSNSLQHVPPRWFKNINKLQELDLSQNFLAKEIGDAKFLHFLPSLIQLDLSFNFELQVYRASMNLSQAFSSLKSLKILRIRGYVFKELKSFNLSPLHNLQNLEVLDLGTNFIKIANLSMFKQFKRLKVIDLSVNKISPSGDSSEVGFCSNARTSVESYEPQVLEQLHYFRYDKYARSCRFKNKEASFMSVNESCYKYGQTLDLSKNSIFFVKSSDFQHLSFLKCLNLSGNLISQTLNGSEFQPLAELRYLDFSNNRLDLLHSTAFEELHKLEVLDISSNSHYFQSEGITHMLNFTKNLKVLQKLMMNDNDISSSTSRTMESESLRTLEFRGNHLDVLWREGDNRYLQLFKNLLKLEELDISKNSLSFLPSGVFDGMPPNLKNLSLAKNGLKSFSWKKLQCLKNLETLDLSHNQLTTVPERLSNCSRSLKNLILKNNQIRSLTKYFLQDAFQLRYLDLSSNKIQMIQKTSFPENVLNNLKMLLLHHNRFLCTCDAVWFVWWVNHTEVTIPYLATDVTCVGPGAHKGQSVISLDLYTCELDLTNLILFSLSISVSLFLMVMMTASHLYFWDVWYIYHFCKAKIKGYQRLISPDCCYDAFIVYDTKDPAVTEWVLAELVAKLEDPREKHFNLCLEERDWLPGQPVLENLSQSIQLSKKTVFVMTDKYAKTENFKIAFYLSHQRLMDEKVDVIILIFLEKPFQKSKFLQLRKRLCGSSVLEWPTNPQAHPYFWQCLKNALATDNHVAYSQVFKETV

[3] = Cytotoxicity against HEK293 cells transfected with the CMV-TLR7 construct assessed as reduction in cell viability after 6 hrs by ATPlite assay; format: cell-based; settings: human
[4] = biological target: T2, Toll-like receptor 7 (Homo sapiens); test: Agonist activity at TLR7 in human PBMC assessed as suppression of HCV replicon replication in human HuH7 luc/neo cells harboring RNA encoding bicistronic expression construct comprising wild type HCV type 1b NS3-NS5B regions exposed to conditioned media from compound treated PBMCs after 24 hrs by luciferase reporter gene assay; format: cell-based
[5] = Drug metabolism in mouse liver microsomes at 1 uM after 15 mins; format: ADME, microsome; settings: read-out: Drug metabolism

Row | Structure (SMILES) | MEC [1] | MEC [2] | CC50 at 6 h [3] | MEC [4] | metabolised at 0.25 h, 1 µM [5]
1 | CCCCNc1nc(N)nc2c1CN(C(=O)c1ccccc1)CC2 | 1.4 µM | 1.5 µM | > 24 µM | – | –
2 | CCCCNc1nc(N)nc2c1CN(Cc1cccc(Cl)c1Cl)CC2 | 0.18 µM | 1.5 µM | > 24 µM | 0.25 µM | –
3 | CCCCNc1nc(N)nc2c1CN(Cc1cccc3ccccc13)CC2 | 0.43 µM | 1.3 µM | > 24 µM | 0.43 µM | –
4 | CCCCNc1nc(N)nc2c1CCN(Cc1ccccc1)C2 | 0.4 µM | 11 µM | > 24 µM | – | –
5 | CCCCNc1nc(N)nc2c1CN(C(=O)c1cnccn1)CC2 | 2.2 µM | 3.7 µM | > 24 µM | 2.38 µM | –
6 | CCCCNc1nc(N)nc2c1CN(Cc1ccc(OC)cc1)CC2 | 0.08 µM | 2.1 µM | > 24 µM | 0.17 µM | –
7 | CCCCNc1nc(N)nc2c1CN(Cc1cccc(OC)c1Cl)CC2 | 0.04 µM | 1 µM | > 24 µM | 0.05 µM | –
8 | CCCCNc1nc(N)nc2c1CN(CCc1ccccc1)CC2 | 0.2 µM | 1.8 µM | > 24 µM | – | –
9 | CCCCNc1nc(N)nc2c1CN(C(=O)c1cc(C)on1)CC2 | 0.4 µM | 0.8 µM | > 24 µM | 0.22 µM | –
10 | CCCCNc1nc(N)nc2c1CN(S(C)(=O)=O)CC2 | 9.9 µM | > 25 µM | > 24 µM | – | –
11 | CCCCNc1nc(N)nc2c1CN(C(=O)c1scnc1C)CC2 | 5.6 µM | 13 µM | > 24 µM | 2.23 µM | –
12 | CCCCNc1nc(N)nc2c1CN(Cc1ccco1)CC2 | 0.08 µM | 3.7 µM | > 24 µM | 0.07 µM | –
13 | CCCCNc1nc(N)nc2c1CCN(C)C2 | 0.2 µM | 10 µM | > 24 µM | – | –
14 | CCCCNc1nc(N)nc2c1CN(C(=O)c1ccccn1)CC2 | 2.9 µM | 9.5 µM | > 24 µM | 2.21 µM | –
15 | CCCCNc1nc(N)nc2c1CN(Cc1ccc(OC(F)(F)F)cc1)CC2 | 0.24 µM | 4.7 µM | > 24 µM | 0.52 µM | –
16 | CCCCNc1nc(N)nc2c1CN(Cc1ccc(-c3ccccc3)cc1)CC2 | 0.5 µM | 14 µM | > 24 µM | 4.49 µM | –
17 | CCCCNc1nc(N)nc2c1CN(C(=O)CC)CC2 | 0.4 µM | 2.3 µM | > 24 µM | 0.53 µM | –
18 | CCCCNc1nc(N)nc2c1CCN(S(C)(=O)=O)C2 | 0.8 µM | 20 µM | > 24 µM | – | –
19 | CCCCNc1nc(N)nc2c1CCNC2 | 0.6 µM | 8.9 µM | > 24 µM | – | –
20 | CCCCNc1nc(N)nc2c1CN(C(=O)C(C)C)CC2 | 1.6 µM | 8.1 µM | > 24 µM | 1.8 µM | –
21 | CCCCNc1nc(N)nc2c1CN(C(=O)c1cscn1)CC2 | 0.5 µM | 1.2 µM | > 24 µM | 0.17 µM | –
22 | CCCCNc1nc(N)nc2c1CN(C(=O)c1cccs1)CC2 | 0.4 µM | 0.2 µM | > 24 µM | 0.07 µM | 99%
23 | CCCCNc1nc(N)nc2c1CN(Cc1ccc(C(F)(F)F)cc1)CC2 | 0.23 µM | 2.8 µM | > 24 µM | 0.54 µM | –

Row | Structure (SMILES) | MEC [1] | MEC [2] | CC50 at 6 h [3] | MEC [4] | metabolised at 0.25 h, 1 µM [5]
24 | CCCCNc1nc(N)nc2c1CN(C(=O)C1CCC1)CC2 | 0.4 µM | 0.8 µM | > 24 µM | 0.23 µM | –
25 | CCCCNc1nc(N)nc2c1CN(C)CC2 | 0.03 µM | 9.6 µM | > 24 µM | – | –
26 | CCOCc1nc2c(N)nc3ccccc3c2n1CC(C)(C)O | 0.3 µM | 0.1 µM | – | – | –
27 | CCCCNc1nc(N)nc2c1CN(C(=O)c1cnc(N)s1)CC2 | 4.4 µM | 2.1 µM | > 24 µM | 0.38 µM | –
28 | CCCCNc1nc(N)nc2c1CN(Cc1ccncc1)CC2 | 0.29 µM | 5.2 µM | > 24 µM | 0.5 µM | –
29 | CCCCNc1nc(N)nc2c1CN(Cc1ccccc1)CC2 | 0.06 µM | 1.6 µM | > 24 µM | – | –
30 | CCCCNc1nc(N)nc2c1CN(Cc1ccccn1)CC2 | 0.07 µM | 3.3 µM | > 24 µM | 0.14 µM | –
31 | CCCCNc1nc(N)nc2c1CN(C(=O)c1cnc(C)cn1)CC2 | 6.8 µM | 11 µM | > 24 µM | 1.07 µM | –
32 | CCCCNc1nc(N)nc2c1CN(C(=O)c1csc(N)n1)CC2 | 6.9 µM | 8 µM | > 24 µM | 1.05 µM | –
33 | CCCCNc1nc(N)nc2c1CCN(C(C)=O)C2 | 0.4 µM | 5.8 µM | > 24 µM | – | –
34 | CCCCNc1nc(N)nc2c1CN(Cc1cccs1)CC2 | 0.14 µM | 2.5 µM | > 24 µM | 0.16 µM | –
35 | CCCCNc1nc(N)nc2c1CN(C(=O)c1ccncc1)CC2 | > 25 µM | > 25 µM | > 24 µM | 3.56 µM | –
36 | CCCCNc1nc(N)nc2c1CCN(CCc1ccccc1)C2 | 0.2 µM | 6.5 µM | > 24 µM | – | –
37 | CCCCNc1nc(N)nc2c1CN(Cc1c(Cl)cccc1Cl)CC2 | 0.14 µM | 2.4 µM | > 24 µM | 0.19 µM | –
38 | CCCCNc1nc(N)nc2c1CN(C(=O)c1csnn1)CC2 | 0.1 µM | 0.9 µM | > 24 µM | 0.15 µM | –
39 | CCCCNc1nc(N)nc2c1CN(C(C)=O)CC2 | 0.5 µM | 4.9 µM | > 24 µM | – | –
40 | CCCCNc1nc(N)nc2c1CNCC2 | 7.2 µM | > 25 µM | > 24 µM | – | –
41 | CCCCNc1nc(N)nc2c1CN(Cc1ccc(C(C)(C)C)cc1)CC2 | 0.66 µM | 19 µM | > 24 µM | 2.79 µM | –
42 | CCCCNc1nc(N)nc2c1CN(Cc1c[nH]c3ccccc13)CC2 | 0.22 µM | > 20 µM | > 24 µM | 0.18 µM | –
43 | CCCCNc1nc(N)nc2c1CN(Cc1cc(F)cc(F)c1)CC2 | 0.23 µM | 3.5 µM | > 24 µM | 0.53 µM | –
44 | CCCCNc1nc(N)nc2c1CN(Cc1ccccc1Cl)CC2 | 0.05 µM | 1.5 µM | > 24 µM | 0.15 µM | –
45 | CCCCNc1nc(N)nc2c1CN(C(=O)c1cocn1)CC2 | 0.2 µM | 0.7 µM | > 24 µM | 0.17 µM | –
46 | CCCCNc1nc(N)nc2c1CN(Cc1cccnc1)CC2 | 0.13 µM | 3 µM | > 24 µM | 0.15 µM | –
